In US7741319B2 (Spirogen Limited, priority 2004, dated 2010):

Test system: K562 human chronic myeloid leukaemia cells
Experiment: In vitro cytotoxicity, MTT assay in K562 cells
Type: cell-based
Experimental: K562 human chronic myeloid leukaemia cells were maintained in RPM1 1640 medium supplemented with 10% fetal calf serum and 2 mM glutamine at 37° C. in a humidified atmosphere containing 5% CO2 and were incubated with a specified dose of drug for 1 hour or 96 hours at 37° C. in the dark. The incubation was terminated by centrifugation (5 min, 300 g) and the cells were washed once with drug-free medium. Following the appropriate drug treatment, the cells were transferred to 96-well microtiter plates (10^4 cells per well, 8 wells per sample). Plates were then kept in the dark at 37° C. in a humidified atmosphere containing 5% CO2. The assay is based on the ability of viable cells to reduce a yellow soluble tetrazolium salt, 3-(4,5-dimethylthiazol-2-yl)-2,5-diphenyl-2H-tetrazolium bromide (MTT, Aldrich-Sigma), to an insoluble purple formazan precipitate. Following incubation of the plates for 4 days (to allow control cells to increase in number by approximately 10 fold), 20 μL of MTT solution (5 mg/mL in phosphate-buffered saline) was added to each well and the plates further incubated for 5 h. The plates were then centrifuged for 5 min at 300 g and the bulk of the medium pipetted from the cell pellet leaving 10-20 μL per well. DMSO (200 μL) was added to each well and the samples agitated to ensure complete mixing. The optical density was then read at a wavelength of 550 nm on a Titertek Multiscan ELISA plate reader, and a dose-response curve was constructed. For each curve, an IC50 value was read as the dose required to reduce the final optical density to 50% of the control value.

Row | Compound | IC50 (K562, 1 h, 1 hour incubation) [nM] | further results
1 | COc1cc2c(cc1OCCCOc1cc3c(cc1OC)C(=O)N1C=C(/C=C/C(=O)N(C)C)C[C@H]1C=N3)N=C[C@@H]1CC(/C=C/C(=O)N(C)C)=CN1C2=O | 3800 ± 440 | 
2 | C/C=C/C1=CN2C(=O)c3cc(OC)c(OC)cc3N=C[C@@H]2C1 [Compound 30q, (11aS)-7,8-Dimethoxy-2-(1-propenyl)-1,11a-dihydro-5H-pyrrolo[2,1-c][1,4]benzodiazepin-5-one] |  | IC50 (K562, 96 h, 96 hour incubation period, threshold less than 10 nM): < 10 nM; IC50 (K562, 96 h, 96 hour incubation period, threshold less than 1 μM): < 1000 nM
3 | COc1ccc(C2=CN3C(=O)c4cc(OC)c(OCCCOc5cc6c(cc5OC)C(=O)N5C=C(c7ccc(OC)cc7)C[C@H]5C=N6)cc4N=C[C@@H]3C2)cc1 [ZC-207, 1,1′-[[(Propane-1,3-diyl)dioxy]bis[(11aS)-7-methoxy-2-(p-methoxybenzene)-1,11a-dihydro-5H-pyrrolo[2,1-c][1,4]benzodiazepine-5-one]]] | 5.3 ± 4.9 | 
4 | COc1cc2c(cc1OCCCOc1cc3c(cc1OC)C(=O)N1C=C(C#Cc4ccccc4)C[C@H]1C=N3)N=C[C@@H]1CC(C#Cc3ccccc3)=CN1C2=O [ZC-209] | < 10 | 
5 | C/C=C/C1=CN2C(=O)c3cc(OC)c(OCCCOc4cc5c(cc4OC)C(=O)N4C=C(/C=C/C)C[C@H]4C=N5)cc3N=C[C@@H]2C1 [ZC-211] |  | IC50 (1 hour incubation): < 10 nM
